Results as given in ChEMBL document CHEMBL2424528, “Novel tetrahydropyran analogs as dipeptidyl peptidase IV inhibitors: Profile of clinical candidate (2R,3S,5R)-2- (2,5-difluorophenyl)-5-(4,6-dihydropyrrolo [3,4-c]pyrazol-5-(1H)-yl)tetrahydro-2H-pyran-3-amine (23) [corrected]” (Bioorg Med Chem Lett, 2013).
Calls of active or inactive are those of the source. No cut-off for these calls is given here.

What was measured:
Prolyl endopeptidase FAP = biological target: T1, Prolyl endopeptidase FAP (Homo sapiens, UniProt Q12884); assay: Inhibition of human FAP
T1 sequence (Q12884 whole entry): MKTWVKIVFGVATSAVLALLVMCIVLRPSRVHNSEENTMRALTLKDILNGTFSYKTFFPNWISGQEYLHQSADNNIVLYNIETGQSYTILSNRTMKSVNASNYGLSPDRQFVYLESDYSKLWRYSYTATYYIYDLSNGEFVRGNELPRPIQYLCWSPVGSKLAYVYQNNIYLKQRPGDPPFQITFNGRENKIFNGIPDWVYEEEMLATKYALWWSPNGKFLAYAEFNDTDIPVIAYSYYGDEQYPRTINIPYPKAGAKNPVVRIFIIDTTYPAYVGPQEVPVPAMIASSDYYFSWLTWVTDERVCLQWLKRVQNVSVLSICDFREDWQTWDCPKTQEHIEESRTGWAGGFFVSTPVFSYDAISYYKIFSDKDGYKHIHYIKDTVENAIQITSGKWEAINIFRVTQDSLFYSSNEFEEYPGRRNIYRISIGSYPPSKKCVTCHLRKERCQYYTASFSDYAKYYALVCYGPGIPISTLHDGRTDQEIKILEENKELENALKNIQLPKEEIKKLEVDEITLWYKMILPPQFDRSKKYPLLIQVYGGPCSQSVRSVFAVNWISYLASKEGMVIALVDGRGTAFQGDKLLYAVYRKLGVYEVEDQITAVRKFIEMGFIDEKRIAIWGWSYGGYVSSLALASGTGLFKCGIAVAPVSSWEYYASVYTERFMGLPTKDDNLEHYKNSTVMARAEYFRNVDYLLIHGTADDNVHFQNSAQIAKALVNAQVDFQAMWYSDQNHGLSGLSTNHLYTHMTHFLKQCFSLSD

Mus musculus [1] = assay: Antidiabetic activity in lean mouse assessed as reduction in blood glucose AUC at 3 mg/kg, po administered 1 hr prior to dextrose challenge by oral glucose tolerance test; assay type: functional; set-up: scale not given: the % may be the effect or the level left
Mus musculus [2] = assay: Antidiabetic activity in lean mouse assessed as reduction in blood glucose AUC at 0.1 mg/kg, po administered 1 hr prior to dextrose challenge by oral glucose tolerance test; assay type: functional; set-up: scale not given: the % may be the effect or the level left
Mus musculus [3] = assay: Antidiabetic activity in DPP-4i-deficient lean mouse assessed as inhibition of blood glucose excursion at 3 mg/kg administered 1 hr prior to dextrose challenge by oral glucose tolerance test relative to control; assay type: functional, organism-based; set-up: dose 3 mg/kg
Mus musculus [4] = assay: Antidiabetic activity in wild type lean mouse assessed as inhibition of blood glucose excursion at 3 mg/kg administered 1 hr prior to dextrose challenge by oral glucose tolerance test; assay type: functional
Mus musculus [5] = assay: Induction in plasma GLP-1 level in lean mouse at 1 mg/kg; assay type: functional, organism-based; set-up: dose 1 mg/kg
Mus musculus [6] = species on record: Mus musculus; assay: Induction in plasma GLP-1 level in lean mouse; assay type: functional, organism-based
[7] = Plasma concentration in lean mouse at 0.3 mg/kg administered 10 mins prior to dextrose challenge; assay type: ADME, organism-based; set-up: dose 0.3 mg/kg
Mus musculus [8] = assay: In vivo inhibition of DPP4 in lean mouse model at 0.3 mg/kg administered 10 mins prior to dextrose challenge; assay type: functional; set-up: scale not given: the % may be the effect or the level left
Mus musculus [9] = assay: In vivo inhibition of DPP4 in lean mouse model administered 10 mins prior to dextrose challenge; assay type: functional, organism-based
Mus musculus [10] = assay: Antidiabetic activity in orally dosed lean mouse assessed as reduction in blood glucose excursion administered 1 hr prior to dextrose challenge by oral glucose tolerance test; assay type: functional, organism-based
Rhesus monkey = assay: Dose normalized AUC in rhesus monkey at 2 mg/kg, po; assay type: ADME, organism-based, Macaca mulatta; set-up: dose 2 mg/kg, route oral; conditions: in vivo
Canis familiaris [11] = assay: Dose normalized AUC in beagle dog at 2 mg/kg, po; assay type: ADME, organism-based, Canis lupus familiaris; set-up: dose 2 mg/kg, route oral; conditions: in vivo
Rattus norvegicus = assay: Dose normalized AUC in rat at 2 mg/kg, po; assay type: ADME, organism-based; set-up: dose 2 mg/kg, route oral; conditions: in vivo
[12] = Oral bioavailability in rhesus monkey at 2 mg/kg; assay type: ADME, organism-based, Macaca mulatta; conditions: in vivo
[13] = Oral bioavailability in beagle dog at 2 mg/kg; assay type: ADME, organism-based, Canis lupus familiaris; conditions: in vivo
[14] = Oral bioavailability in rat at 2 mg/kg; assay type: ADME, organism-based; conditions: in vivo
[15] = Tmax in rhesus monkey at 1 mg/kg, iv and 2 mg/kg, po; assay type: ADME, organism-based, Macaca mulatta; conditions: in vivo
[16] = Tmax in beagle dog at 1 mg/kg, iv and 2 mg/kg, po; assay type: ADME, organism-based, Canis lupus familiaris; conditions: in vivo
[17] = Tmax in rat at 1 mg/kg, iv and 2 mg/kg, po; assay type: ADME, organism-based; conditions: in vivo
[18] = Cmax in rhesus monkey at 2 mg/kg, po; assay type: ADME, organism-based, Macaca mulatta; set-up: dose 2 mg/kg, route oral; conditions: in vivo
[19] = Cmax in beagle dog at 2 mg/kg, po; assay type: ADME, organism-based, Canis lupus familiaris; set-up: dose 2 mg/kg, route oral; conditions: in vivo
[20] = Cmax in rat at 2 mg/kg, po; assay type: ADME, organism-based; set-up: dose 2 mg/kg, route oral; conditions: in vivo
[21] = Terminal half life in rhesus monkey at 1 mg/kg, iv and 2 mg/kg, po; assay type: ADME, organism-based, Macaca mulatta; conditions: in vivo, read-out: beta t1/2 (converted)
[22] = Terminal half life in beagle dog at 1 mg/kg, iv and 2 mg/kg, po; assay type: ADME, organism-based, Canis lupus familiaris; conditions: in vivo, read-out: beta t1/2 (converted)
[23] = Terminal half life in rat at 1 mg/kg, iv and 2 mg/kg, po; assay type: ADME, organism-based; conditions: in vivo, read-out: beta t1/2 (converted)
[24] = Volume of distribution at steady state in beagle dog at 1 mg/kg, iv and 2 mg/kg, po; assay type: ADME, organism-based, Canis lupus familiaris; conditions: in vivo, read-out: Vdss
[25] = Volume of distribution at steady state in rhesus monkey at 1 mg/kg, iv and 2 mg/kg, po; assay type: ADME, organism-based, Macaca mulatta; conditions: in vivo, read-out: Vdss
[26] = Volume of distribution at steady state in rat at 1 mg/kg, iv and 2 mg/kg, po; assay type: ADME, organism-based; conditions: in vivo, read-out: Vdss
[27] = Plasma clearance in rhesus monkey at 1 mg/kg, iv and 2 mg/kg, po; assay type: ADME, organism-based, Macaca mulatta
[28] = Plasma clearance in beagle dog at 1 mg/kg, iv and 2 mg/kg, po; assay type: ADME, organism-based, Canis lupus familiaris
[29] = Plasma clearance in rat at 1 mg/kg, iv and 2 mg/kg, po; assay type: ADME, organism-based
[30] = Inhibition of cytochrome P450 (unknown origin); assay type: ADME; conditions: human
[31] = biological target: Voltage-dependent L-type calcium channel subunit alpha-1C (Homo sapiens, UniProt Q13936); assay: Inhibition of Cav1.2 channel (unknown origin)
Sequence of Voltage-dependent L-type calcium channel subunit alpha-1C (Q13936 whole entry): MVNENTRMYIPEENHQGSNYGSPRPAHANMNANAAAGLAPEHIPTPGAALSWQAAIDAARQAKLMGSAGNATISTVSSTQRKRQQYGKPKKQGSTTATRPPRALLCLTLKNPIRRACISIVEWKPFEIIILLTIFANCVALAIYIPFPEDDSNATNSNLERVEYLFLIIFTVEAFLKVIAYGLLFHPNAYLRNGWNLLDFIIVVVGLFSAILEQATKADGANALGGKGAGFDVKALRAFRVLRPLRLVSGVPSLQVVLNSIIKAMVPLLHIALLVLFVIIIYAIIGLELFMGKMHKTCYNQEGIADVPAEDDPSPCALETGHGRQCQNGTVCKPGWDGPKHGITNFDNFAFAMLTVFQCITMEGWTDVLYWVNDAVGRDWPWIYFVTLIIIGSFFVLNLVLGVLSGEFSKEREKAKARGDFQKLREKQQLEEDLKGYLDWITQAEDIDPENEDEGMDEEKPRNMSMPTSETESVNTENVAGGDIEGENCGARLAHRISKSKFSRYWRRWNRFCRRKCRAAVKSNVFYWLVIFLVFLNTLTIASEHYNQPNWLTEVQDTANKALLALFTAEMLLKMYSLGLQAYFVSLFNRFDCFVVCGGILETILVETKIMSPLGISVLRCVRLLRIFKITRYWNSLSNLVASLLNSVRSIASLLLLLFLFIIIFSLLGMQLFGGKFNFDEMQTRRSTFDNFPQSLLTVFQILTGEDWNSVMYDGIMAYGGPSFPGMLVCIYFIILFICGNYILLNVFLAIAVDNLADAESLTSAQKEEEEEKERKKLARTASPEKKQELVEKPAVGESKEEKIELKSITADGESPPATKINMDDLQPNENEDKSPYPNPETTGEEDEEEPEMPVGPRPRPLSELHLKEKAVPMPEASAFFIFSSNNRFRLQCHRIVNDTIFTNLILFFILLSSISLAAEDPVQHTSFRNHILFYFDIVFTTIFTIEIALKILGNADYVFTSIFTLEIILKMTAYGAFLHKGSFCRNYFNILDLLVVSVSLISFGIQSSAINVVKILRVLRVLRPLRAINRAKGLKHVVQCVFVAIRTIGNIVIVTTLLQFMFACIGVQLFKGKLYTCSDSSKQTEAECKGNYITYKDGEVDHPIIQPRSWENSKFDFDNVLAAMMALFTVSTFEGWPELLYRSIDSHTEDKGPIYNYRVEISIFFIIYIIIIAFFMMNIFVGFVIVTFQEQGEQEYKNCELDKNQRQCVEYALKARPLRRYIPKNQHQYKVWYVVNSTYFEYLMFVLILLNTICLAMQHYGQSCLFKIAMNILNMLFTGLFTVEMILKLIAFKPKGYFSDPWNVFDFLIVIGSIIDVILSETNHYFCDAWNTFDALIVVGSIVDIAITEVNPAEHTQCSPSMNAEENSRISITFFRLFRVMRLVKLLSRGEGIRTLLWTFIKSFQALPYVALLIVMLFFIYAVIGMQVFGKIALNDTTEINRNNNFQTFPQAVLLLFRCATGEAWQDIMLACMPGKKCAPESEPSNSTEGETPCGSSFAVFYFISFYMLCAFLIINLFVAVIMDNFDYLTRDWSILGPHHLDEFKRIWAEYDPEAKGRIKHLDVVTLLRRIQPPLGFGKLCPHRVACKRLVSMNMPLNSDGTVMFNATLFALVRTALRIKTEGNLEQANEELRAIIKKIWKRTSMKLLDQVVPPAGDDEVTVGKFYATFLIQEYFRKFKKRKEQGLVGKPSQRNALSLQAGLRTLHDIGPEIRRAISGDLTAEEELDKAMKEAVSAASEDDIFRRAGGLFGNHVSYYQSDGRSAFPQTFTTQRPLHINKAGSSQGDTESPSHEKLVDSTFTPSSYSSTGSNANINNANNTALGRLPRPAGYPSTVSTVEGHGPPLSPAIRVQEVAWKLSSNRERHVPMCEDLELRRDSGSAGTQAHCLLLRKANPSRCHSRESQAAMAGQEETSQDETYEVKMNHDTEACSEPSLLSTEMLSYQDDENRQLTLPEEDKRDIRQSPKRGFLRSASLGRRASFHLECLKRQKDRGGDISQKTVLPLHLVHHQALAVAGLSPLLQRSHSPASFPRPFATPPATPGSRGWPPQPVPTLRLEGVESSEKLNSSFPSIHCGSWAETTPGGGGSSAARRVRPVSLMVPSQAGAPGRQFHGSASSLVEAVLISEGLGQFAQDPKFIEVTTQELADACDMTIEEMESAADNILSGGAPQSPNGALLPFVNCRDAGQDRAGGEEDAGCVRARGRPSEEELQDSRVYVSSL

[32] = biological target: Voltage-gated inwardly rectifying potassium channel KCNH2 (Homo sapiens, UniProt Q12809); assay: Inhibition of human ERG channel
Sequence of Voltage-gated inwardly rectifying potassium channel KCNH2 (Q12809 whole entry): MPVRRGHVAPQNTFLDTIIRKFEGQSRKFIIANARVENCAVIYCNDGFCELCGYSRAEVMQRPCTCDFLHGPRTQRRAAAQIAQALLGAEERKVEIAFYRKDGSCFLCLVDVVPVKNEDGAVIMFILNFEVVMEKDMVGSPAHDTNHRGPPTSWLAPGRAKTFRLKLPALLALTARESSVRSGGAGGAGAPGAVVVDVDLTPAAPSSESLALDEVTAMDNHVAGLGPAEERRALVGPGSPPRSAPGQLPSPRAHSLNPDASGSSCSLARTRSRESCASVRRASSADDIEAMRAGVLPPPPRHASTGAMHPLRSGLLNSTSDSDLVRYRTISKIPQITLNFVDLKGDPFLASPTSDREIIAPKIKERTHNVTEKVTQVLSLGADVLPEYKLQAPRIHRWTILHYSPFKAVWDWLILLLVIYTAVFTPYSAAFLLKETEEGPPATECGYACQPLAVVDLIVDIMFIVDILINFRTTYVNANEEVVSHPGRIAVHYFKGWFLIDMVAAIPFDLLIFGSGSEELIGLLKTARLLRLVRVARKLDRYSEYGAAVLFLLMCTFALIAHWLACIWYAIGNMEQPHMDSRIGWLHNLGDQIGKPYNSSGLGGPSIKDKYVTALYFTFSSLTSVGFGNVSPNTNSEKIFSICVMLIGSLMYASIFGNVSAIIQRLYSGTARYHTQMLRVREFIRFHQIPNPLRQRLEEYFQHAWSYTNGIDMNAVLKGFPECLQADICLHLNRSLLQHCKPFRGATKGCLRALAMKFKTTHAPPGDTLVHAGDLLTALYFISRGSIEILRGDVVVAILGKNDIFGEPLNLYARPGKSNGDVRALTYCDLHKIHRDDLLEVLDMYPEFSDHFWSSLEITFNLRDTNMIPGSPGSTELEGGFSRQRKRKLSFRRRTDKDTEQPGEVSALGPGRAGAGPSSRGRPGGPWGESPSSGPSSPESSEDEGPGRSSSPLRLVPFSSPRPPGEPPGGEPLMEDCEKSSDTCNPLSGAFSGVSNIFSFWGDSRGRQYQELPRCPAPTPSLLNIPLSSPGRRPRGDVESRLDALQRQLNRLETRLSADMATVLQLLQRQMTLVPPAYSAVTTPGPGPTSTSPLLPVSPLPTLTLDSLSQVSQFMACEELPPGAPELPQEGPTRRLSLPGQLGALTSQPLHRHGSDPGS

Dipeptidyl peptidase 8 = Dipeptidyl peptidase 8 (Homo sapiens, UniProt Q6V1X1); assay: Inhibition of human DPP8
Sequence of Dipeptidyl peptidase 8 (Q6V1X1 whole entry): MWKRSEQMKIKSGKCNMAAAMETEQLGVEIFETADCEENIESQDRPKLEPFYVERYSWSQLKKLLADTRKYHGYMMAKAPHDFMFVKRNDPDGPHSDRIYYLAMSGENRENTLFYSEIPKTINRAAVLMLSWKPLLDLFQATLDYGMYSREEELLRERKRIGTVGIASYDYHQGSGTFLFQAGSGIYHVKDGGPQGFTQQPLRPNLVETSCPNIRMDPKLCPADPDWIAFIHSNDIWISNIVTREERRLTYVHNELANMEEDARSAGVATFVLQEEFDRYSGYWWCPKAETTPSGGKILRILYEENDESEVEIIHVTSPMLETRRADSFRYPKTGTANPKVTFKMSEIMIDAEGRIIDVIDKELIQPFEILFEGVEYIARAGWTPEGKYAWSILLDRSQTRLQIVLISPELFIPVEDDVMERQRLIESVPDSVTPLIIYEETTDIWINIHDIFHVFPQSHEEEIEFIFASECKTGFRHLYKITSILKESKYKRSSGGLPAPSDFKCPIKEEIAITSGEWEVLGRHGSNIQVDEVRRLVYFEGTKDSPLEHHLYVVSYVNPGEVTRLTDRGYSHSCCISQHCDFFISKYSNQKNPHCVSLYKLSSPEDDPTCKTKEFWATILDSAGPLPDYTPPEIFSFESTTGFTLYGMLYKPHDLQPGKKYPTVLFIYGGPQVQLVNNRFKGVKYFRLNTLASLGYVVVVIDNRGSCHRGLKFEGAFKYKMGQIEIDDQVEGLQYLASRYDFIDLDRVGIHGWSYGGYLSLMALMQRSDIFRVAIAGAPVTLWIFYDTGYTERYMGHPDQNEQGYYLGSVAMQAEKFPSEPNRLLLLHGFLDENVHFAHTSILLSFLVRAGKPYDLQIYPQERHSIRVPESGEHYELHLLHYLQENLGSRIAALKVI

Dipeptidyl peptidase 2 = Dipeptidyl peptidase 2 (Homo sapiens, UniProt Q9UHL4); assay: Inhibition of QPP (unknown origin)
[33] = Dissociation constant, pKa of the compound; assay type: physicochemical
Canis familiaris [34] = assay: Cardiotoxicity in dog model assessed as QTc prolongation up to 30 mg/kg; assay type: toxicity, organism-based, Canis lupus familiaris; set-up: dose 30 mg/kg; conditions: in vivo
Canis familiaris [35] = assay: Cardiotoxicity in cardiovascular dog model assessed as QTc prolongation at 3 mg/kg; assay type: toxicity, organism-based, Canis lupus familiaris, Heart; set-up: dose 3 mg/kg; conditions: in vivo

## N[C@H]1C[C@@H](N2Cc3ccccc3O2)CO[C@@H]1c1cc(F)ccc1F
Prolyl endopeptidase FAP
  IC50: > 100 µM

## N[C@H]1C[C@@H](N2Cc3cn[nH]c3C2)CO[C@@H]1c1cc(F)ccc1F
Mus musculus [1]
  Activity: 47%
Mus musculus [2]
  Activity: 27%
Mus musculus [3]
  inhibition: inactive
Mus musculus [4]
  inhibition in vivo at 3 mg/kg: 53%
Mus musculus [5]
  Activity: Active
Mus musculus [6]
  Activity: Dose-dependent effect
[7]
  concentration at 10 min: 260 nM
Mus musculus [8]
  Activity: >80%
Mus musculus [9]
  Activity: Dose-dependent effect
Mus musculus [10]
  Activity: Dose-dependent effect
Rhesus monkey
  AUC/dose: 7.33 µM·h/mg/kg
Canis familiaris [11]
  AUC/dose: 16.1 µM·h/mg/kg
Rattus norvegicus
  AUC/dose: 3.72 µM·h/mg/kg
[12]
  bioavailability: 72%
[13]
  bioavailability: 83%
[14]
  bioavailability: 70%
[15]
  Tmax: 1.1 h
[16]
  Tmax: 3.5 h
[17]
  Tmax: 0.5 h
[18]
  Cmax: 1480 nM
[19]
  Cmax: 1920 nM
[20]
  Cmax: 800 nM
[21]
  half-life: 9.7 h
[22]
  half-life: 13 h
[23]
  half-life: 6.3 h
[24]
  Vd: 3 L/kg
[25]
  Vd: 4.2 L/kg
[26]
  Vd: 4.9 L/kg
[27]
  clearance: 5.2 mL/min/kg
[28]
  clearance: 2.7 mL/min/kg
[29]
  clearance: 9.7 mL/min/kg
[30]
  inhibition (INH): Not Active
[31]
  inhibition (INH): Not Active
[32]; human
  inhibition (INH): Not Active

## N[C@H]1C[C@@H](N2CCn3c(nnc3C(F)(F)F)C2)CO[C@@H]1c1cc(F)ccc1F
Dipeptidyl peptidase 8
  IC50: > 100 µM
Prolyl endopeptidase FAP
  IC50: > 100 µM
Dipeptidyl peptidase 2
  IC50: > 100 µM

## CC1(C)c2cnc(C3CC3)nc2CN1[C@H]1CO[C@H](c2cc(F)ccc2F)[C@@H](N)C1
Dipeptidyl peptidase 8
  IC50: > 100 µM
Prolyl endopeptidase FAP
  IC50: > 100 µM

## N[C@H]1C[C@@H](N2Cc3cn[nH]c3C2)CO[C@@H]1c1cc(F)ccc1Cl
Prolyl endopeptidase FAP
  IC50: > 100 µM
Dipeptidyl peptidase 2
  IC50: > 100 µM

## Cc1nc2c(o1)CN([C@H]1CO[C@H](c3cc(F)ccc3F)[C@@H](N)C1)C2
Dipeptidyl peptidase 8
  IC50: > 100 µM
Prolyl endopeptidase FAP
  IC50: > 100 µM
Dipeptidyl peptidase 2
  IC50: > 100 µM

## N[C@H]1C[C@@H](N2Cc3cnc(C(F)(F)F)nc3C2)CO[C@@H]1c1cc(F)c(F)cc1F
[33]
  pKa: 7.3
Canis familiaris [34]
  Activity: Non-toxic

## N[C@H]1C[C@@H](N2Cc3cn[nH]c3C2)CO[C@@H]1c1ccccc1Cl
Dipeptidyl peptidase 8
  IC50: > 100 µM
Prolyl endopeptidase FAP
  IC50: > 100 µM
Dipeptidyl peptidase 2
  IC50: > 100 µM

## N[C@H]1C[C@@H](N2Cc3cn[nH]c3C2)CO[C@@H]1c1cc(F)c(Cl)cc1F
Dipeptidyl peptidase 8
  IC50: > 100 µM
Prolyl endopeptidase FAP
  IC50: > 100 µM

## N[C@H]1C[C@@H](N2Cc3cn[nH]c3C2)CO[C@@H]1c1cc(F)c(F)cc1F
Dipeptidyl peptidase 8
  IC50: > 100 µM
Prolyl endopeptidase FAP
  IC50: > 6.4 µM

## N[C@@H](CC(=O)N1CCn2c(nnc2C(F)(F)F)C1)Cc1cc(F)c(F)cc1F
Mus musculus [10]
  Activity: Active

## CC1(C)c2nc(C3CC3)ncc2CN1[C@H]1CO[C@H](c2cc(F)ccc2F)[C@@H](N)C1
Dipeptidyl peptidase 8
  IC50: > 100 µM

## N[C@H]1C[C@@H](N2Cc3ccccc3C2=O)CO[C@@H]1c1cc(F)ccc1F
Dipeptidyl peptidase 8
  IC50: > 100 µM
Prolyl endopeptidase FAP
  IC50: > 100 µM
Dipeptidyl peptidase 2
  IC50: > 100 µM

## N[C@H]1C[C@@H](N2Cc3nc(C(F)(F)F)[nH]c3C2)CO[C@@H]1c1cc(F)ccc1F
Prolyl endopeptidase FAP
  IC50: > 100 µM
Dipeptidyl peptidase 2
  IC50: > 100 µM

## N[C@H]1C[C@@H](N2Cc3cnc(C(F)(F)F)nc3C2)CC[C@@H]1c1cc(F)c(F)cc1F
[33]
  pKa: 8.6
Canis familiaris [35]
  Activity: > 5%
[32]
  IC50: 4.8 µM

## N[C@H]1C[C@@H](N2Cc3cnc(C4CC4)nc3C2)CO[C@@H]1c1cc(F)c(F)cc1F
Canis familiaris [34]
  Activity: Non-toxic
[32]
  IC50: > 30 µM

## N[C@H]1C[C@@H](N2Cc3cn[nH]c3C2)CO[C@@H]1c1ccc(F)cc1F
Dipeptidyl peptidase 8
  IC50: > 100 µM
Prolyl endopeptidase FAP
  IC50: > 100 µM
